From patent US11155525B2 (Sanford Burnham Prebys Medical Discovery Institute, priority 2015, dated 2021)

Biological target: T1, human apelin receptor (Homo sapiens, UniProt P35414)
T1 construct: host or cells: CHO cells
T1 sequence (P35414 1-380): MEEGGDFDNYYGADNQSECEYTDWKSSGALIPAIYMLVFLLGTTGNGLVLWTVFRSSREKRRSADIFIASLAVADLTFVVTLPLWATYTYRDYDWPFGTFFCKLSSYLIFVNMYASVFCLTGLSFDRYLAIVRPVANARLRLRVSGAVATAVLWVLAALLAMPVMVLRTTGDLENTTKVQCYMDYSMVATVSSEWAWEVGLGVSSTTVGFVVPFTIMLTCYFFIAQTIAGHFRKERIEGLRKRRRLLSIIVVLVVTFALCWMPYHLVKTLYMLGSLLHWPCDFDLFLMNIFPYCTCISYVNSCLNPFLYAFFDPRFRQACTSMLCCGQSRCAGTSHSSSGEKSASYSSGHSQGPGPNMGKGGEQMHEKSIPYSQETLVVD
Experiment: Measurement of apelin receptor agonist activity (cell-based assay determining the amount of intracellular cAMP)
Conditions: CHO cells stably expressing the human apelin receptor, Forskolin 10 μM, 30 minutes, 100% efficacy = [Pyr1]-apelin-13 0.300 μM, concentration giving 50% efficacy
Experimental: Measurement of Apelin Receptor Agonist Activity
The apelin receptor agonist activity of the compound represented by formula (I) or (II) of the present invention was measured by cell-based assay for determining the amount of intracellular cAMP.
CHO cells (DiscoveRx Corp.) stably expressing the human apelin receptor were inoculated to wells of a microtiter plate and cultured overnight at 37° C. under conditions of 5% CO2.
Each test compound and Forskolin were added to the wells at the same time. Specifically, the test compound dissolved in DMSO was diluted with a Forskolin-containing buffer [DMEM/F-12, HEPES, no phenol red (#11039, GIBCO)] to prepare a mixed solution containing the test compound at a final concentration of […] (common ratio: 3, serial dilution: 11), Forskolin at a final concentration of 10 μM, and DMSO at a final concentration of 0.3% v/v, which was then added to the wells (N═4).
After 30 minutes, the cells were lysed, and HitHunter cAMP XS+ Assay #90-0075L (DiscoveRx Corp.) was added to the cell lysate. The mixture was left overnight, and the resulting chemiluminescence signals were then detected using Analyst GT (Molecular Devices LLC.) to determine the amount of cAMP.
The amount of cAMP determined by the addition of a positive control [Pyr1]-apelin-13 (final concentration: 0.300 μM) and Forskolin (final concentration: 10 μM) at the same time was used as an index to define 100% efficacy. The amount of cAMP determined by the addition of Forskolin (final concentration: 10 μM) alone was used as an index to define 0% efficacy.
A dose response curve was prepared from the final concentration of the test compound and the determined amount of cAMP using Sigmaplot 12.0.

| EC50 [nM] | Compound |
| --- | --- |
| 253 | COc1cccc(OC)c1-n1c(SC)nnc1-c1ccc(C)o1 [Example 85, 4-(2,6-Dimethoxyphenyl)-3-(5-methylfuran-2-yl)-5-(methylsulfanyl)-4H-1,2,4-triazole] |
| 1200 | COc1cccc(OC)c1-n1c(/C=C/C(=O)N(C)OC)nnc1-c1ccc(C)o1 [Example 54, (2E)-3-[4-(2,6-Dimethoxyphenyl)-5-(5-methylfuran-2-yl)-4H-1,2,4-triazol-3-yl]-N-methoxy-N-methylprop-2-enamide] |
| 5 | COc1cccc(OC)c1-n1c(SCc2cc(=O)n3cc(C)ccc3n2)nnc1-c1cccs1 [Example 11] |
| 701 | CCOC(=O)CCc1nnc(-c2ccc(C)o2)n1-c1c(OC)cccc1OC [Example 12, Ethyl 3-[4-(2,6-dimethoxyphenyl)-5-(5-methylfuran-2-yl)-4H-1,2,4-triazol-3-yl]propanoate] |
| 605 | COc1cccc(OC)c1-n1c(SCP(=O)(OC(C)C)OC(C)C)nnc1-c1ccc(C)o1 [Example 96, Dipropan-2-yl ({[4-(2,6-dimethoxyphenyl)-5-(5-methylfuran-2-yl)-4H-1,2,4-triazol-3-yl]sulfanyl}methyl)phosphonate] |
| 45 | COc1cccc(OC)c1-n1c(SC(C)C(=O)O)nnc1-c1ccc(C)o1 (stereo not drawn) [Example 41, 2-{[4-(2,6-Dimethoxyphenyl)-5-(5-methylfuran-2-yl)-4H-1,2,4-triazol-3-yl]sulfanyl}propanoic acid] |
| 774 | COc1cccc(OC)c1-n1c(COCC(=O)O)nnc1-c1ccc(C)o1 [Example 67, {[4-(2,6-Dimethoxyphenyl)-5-(5-methylfuran-2-yl)-4H-1,2,4-triazol-3-yl]methoxy}acetic acid] |
| 2440 | COc1cccc(OC)c1-n1c(SCC(=O)O)nnc1C1CCCC1 [Example 33, {[5-Cyclopentyl-4-(2,6-dimethoxyphenyl)-4H-1,2,4-triazol-3-yl]sulfanyl}acetic acid] |
| 2 | COc1cccc(OC)c1-n1c(SCc2cc(=O)n3cc(Cl)ccc3n2)nnc1-c1ccc(C)o1 [Example 3, 7-Chloro-2-({[4-(2,6-dimethoxyphenyl)-5-(5-methylfuran-2-yl)-4H-1,2,4-triazol-3-yl]sulfanyl}methyl)-4H-pyrido[1,2-a]pyrimidin-4-one] |
| 1410 | CCc1nnc(-c2ccc(C)o2)n1-c1c(OC)cccc1OC [Example 17, 4-(2,6-Dimethoxyphenyl)-3-ethyl-5-(5-methylfuran-2-yl)-4H-1,2,4-triazole] |
| 1530 | COc1cccc(OC)c1-n1c(SCc2cccc(C(=O)O)c2)nnc1-c1ccc(C)o1 [Example 80, 3-({[4-(2,6-Dimethoxyphenyl)-5-(5-methylfuran-2-yl)-4H-1,2,4-triazol-3-yl]sulfanyl}methyl)benzoic acid] |
| 164 | COc1cccc(OC)c1-n1c(SCc2cc(=O)n(C)c(=O)n2C)nnc1-c1ccc(C)o1 [Example 15, 6-({[4-(2,6-Dimethoxyphenyl)-5-(5-methylfuran-2-yl)-4H-1,2,4-triazol-3-yl]sulfanyl}methyl)-1,3-dimethylpyrimidine-2,4(1H,3H)-dione] |
| 152 | COc1ccnc(OC)c1-n1c(SCC(=O)O)nnc1-c1ccc(C)o1 [Example 34, {[4-(2,4-Dimethoxypyridin-3-yl)-5-(5-methylfuran-2-yl)-4H-1,2,4-triazol-3-yl]sulfanyl}acetic acid] |
| 34 | COc1cccc(OC)c1-n1c(SCc2ccccc2C(=O)O)nnc1-c1ccc(C)o1 [Example 78, 2-({[4-(2,6-Dimethoxyphenyl)-5-(5-methylfuran-2-yl)-4H-1,2,4-triazol-3-yl]sulfanyl}methyl)benzoic acid] |
| 6 | COc1cccc(OC)c1-n1c(SCC(=O)NS(=O)(=O)c2ccccc2)nnc1-c1ccc(C)o1 [Example 95, 2-{[4-(2,6-Dimethoxyphenyl)-5-(5-methylfuran-2-yl)-4H-1,2,4-triazol-3-yl]sulfanyl}-N-(phenylsulfonyl)acetamide] |
| 812 | CCCCc1nnc(SCC(=O)O)n1-c1c(OC)cccc1OC [Example 29, {[5-Butyl-4-(2,6-dimethoxyphenyl)-4H-1,2,4-triazol-3-yl]sulfanyl}acetic acid] |
| 46 | COc1cccc(OC)c1-n1c(SCC2=NOC(=O)C2)nnc1-c1ccc(C)o1 [Example 103, 3-({[4-(2,6-Dimethoxyphenyl)-5-(5-methylfuran-2-yl)-4H-1,2,4-triazol-3-yl]sulfanyl}methyl)-1,2-oxazol-5(4H)-one] |

| EC50 [nM] | Compound |
| --- | --- |
| 273 | CCOC(=O)C(=O)NCc1nnc(-c2ccc(C)o2)n1-c1c(OC)cccc1OC [Example 97, Ethyl ({[4-(2,6-dimethoxyphenyl)-5-(5-methylfuran-2-yl)-4H-1,2,4-triazol-3-yl]methyl}amino)(oxo)acetate] |
| 1300 | COc1cccc(OC)c1-n1c(SCC(=O)O)cnc1-c1ccc(C)o1 [Example 60, {[1-(2,6-Dimethoxyphenyl)-2-(5-methylfuran-2-yl)-1H-imidazol-5-yl]sulfanyl}acetic acid] |
| 2650 | COc1cccc(OC)c1-n1c(/C=C/C#N)nnc1-c1ccc(C)o1 [Example 53, (2E)-3-[4-(2,6-Dimethoxyphenyl)-5-(5-methylfuran-2-yl)-4H-1,2,4-triazol-3-yl]prop-2-enenitrile] |
| 1110 | COc1cccc(OC)c1-n1c(SCc2ccccc2)nnc1-c1ccc(C)o1 [Example 40, 3-(Benzylsulfanyl)-4-(2,6-dimethoxyphenyl)-5-(5-methylfuran-2-yl)-4H-1,2,4-triazole] |
| 71 | COC(=O)c1ccc(CSc2nnc(-c3ccc(C)o3)n2-c2c(OC)cccc2OC)cc1 [Example 81, Methyl 4-({[4-(2,6-dimethoxyphenyl)-5-(5-methylfuran-2-yl)-4H-1,2,4-triazol-3-yl]sulfanyl}methyl)benzoate] |
| 3980 | Cc1ccc(-c2nnc(SCC(=O)O)n2-c2c(Cl)cccc2Cl)o1 [Example 32, {[4-(2,6-Dichlorophenyl)-5-(5-methylfuran-2-yl)-4H-1,2,4-triazol-3-yl]sulfanyl}acetic acid] |
| 267 | COc1cccc(OC)c1-n1c(SCC#N)nnc1-c1ccc(C)o1 [Example 84, {[4-(2,6-Dimethoxyphenyl)-5-(5-methylfuran-2-yl)-4H-1,2,4-triazol-3-yl]sulfanyl}acetonitrile] |
| 817 | CCOC(=O)COCc1nnc(-c2ccc(C)o2)n1-c1c(OC)cccc1OC [Example 66, Ethyl {[4-(2,6-dimethoxyphenyl)-5-(5-methylfuran-2-yl)-4H-1,2,4-triazol-3-yl]methoxy}acetate] |
| 332 | COc1cccc(OC)c1-n1c(SCC(=O)O)nnc1-c1cccs1 [Example 30, {[4-(2,6-Dimethoxyphenyl)-5-(thiophen-2-yl)-4H-1,2,4-triazol-3-yl]sulfanyl}acetic acid] |
| 1170 | COc1cccc(OC)c1-n1c(CNC(=O)C(=O)O)nnc1-c1ccc(C)o1 [Example 98, ({[4-(2,6-Dimethoxyphenyl)-5-(5-methylfuran-2-yl)-4H-1,2,4-triazol-3-yl]methyl}amino)(oxo)acetic acid] |
| 2020 | COc1cccc(OC)c1-n1c(-c2ccc(C)o2)nnc1S(C)(=O)=O [Example 86, 4-(2,6-Dimethoxyphenyl)-3-(5-methylfuran-2-yl)-5-(methylsulfonyl)-4H-1,2,4-triazole] |
| 1420 | COc1cccc(OC)c1-n1c(SCC(=O)O)nnc1-c1ccccc1 [Example 28, {[4-(2,6-Dimethoxyphenyl)-5-phenyl-4H-1,2,4-triazol-3-yl]sulfanyl}acetic acid] |
| 11 | COc1cccc(OC)c1-n1c(SC(Cc2ccccc2)C(=O)O)nnc1-c1ccc(C)o1 (stereo not drawn) [Example 39, 2-{[4-(2,6-Dimethoxyphenyl)-5-(5-methylfuran-2-yl)-4H-1,2,4-triazol-3-yl]sulfanyl}-3-phenylpropanoic acid] |
| 48 | COc1cccc(OC)c1-n1c(/C=C\C(=O)O)nnc1-c1ccc(C)o1 [Example 56, (2Z)-3-[4-(2,6-Dimethoxyphenyl)-5-(5-methylfuran-2-yl)-4H-1,2,4-triazol-3-yl]prop-2-enoic acid] |
| 384 | COc1cccc(OC)c1-n1c(CN)nnc1-c1ccc(C)o1 [Example 70, 1-[4-(2,6-Dimethoxyphenyl)-5-(5-methylfuran-2-yl)-4H-1,2,4-triazol-3-yl]methanamine] |
| 12 | CCCC(Sc1nnc(-c2ccc(C)o2)n1-c1c(OC)cccc1OC)C(=O)O (stereo not drawn) [Example 42, 2-{[4-(2,6-Dimethoxyphenyl)-5-(5-methylfuran-2-yl)-4H-1,2,4-triazol-3-yl]sulfanyl}pentanoic acid] |
